Test results from patent US11419335B2, “N-arylated analogues and uses thereof” (University of Florida Research Foundation, Incorporated, priority 2016, dated 2022).
≈ marks a conversion by molar mass, not a printed value. Values belong to the compound of their own block, whether it stands above or below them.

Experiments:
C. albicans SC5314 = test: Fungal MIC susceptibility assay, C. albicans; type: cell-based, Candida albicans; conditions: Table 4; antifungal
Method: (§1) Fungal minimum inhibition concentrations (MICs) were determined using standard microdilution methods according to the Clinical and Laboratory Standards Institute document M27-A3. The test compound concentration ranged from 0.01 to 100 μM. Amphotericin B (AmB) and itraconazole (ITC) (Fisher Scientific) were included as positive controls. DMSO, the vehicle control, was used at ≤1% v/v for these experiments. The fungal M27-A3 standard MIC assay protocol requires the following inoculum preparation protocol: The organisms were cultured onto PDA medium at 35° C. The inoculum is prepared by picking five colonies from 24-hour old culture of Candida spp. or 48-hour old culture of C. neoformans. The inoculum was suspended in 5 ml of sterile water, the resulting suspension was vortexed for 15 seconds and the cell density adjusted (by adding more sterile water) to an OD530=0.30, which yields a suspension of 1×10^6 to 5×10^6 cells per mL. The suspension was diluted 50 times and then 20 times using RPMI 1640 medium to obtain the two times test inoculum (1×10^3 to 5×10^3 cells per mL). The following steps are the same with the standard bacterial MIC protocol using 96-well plates. NOTE: RPMI 1640 medium was used in the fungal MIC assay (for both cell inoculum and compound dilution).

C. neoformans ATCC 66031 = test: Fungal MIC susceptibility assay, C. neoformans; type: cell-based; conditions: Table 4; antifungal
Method: as §1

[1] = system: methicillin-resistant Staphylococcus aureus MRSA-2 (clinical isolate); test: MIC broth microdilution, MRSA-2; type: cell-based; conditions: Table 4
Method: (§2) The minimum inhibitory concentration (MIC) for each tested compound was determined by the broth microdilution method as recommended by the Clinical and Laboratory Standards Institute (CLSI). In a 96-well plate, eleven two-fold serial dilutions of each compound were made in a final volume of 100 μL Luria Broth. Each well was inoculated with ˜10^5 bacterial cells at the initial time of incubation, prepared from a fresh log phase culture (OD600 of 0.5 to 1.0 depending on bacterial strain). The MIC was defined as the lowest concentration of compound that prevented bacterial growth after incubating 16 to 18 hours at 37° C. (MIC values were supported by spectrophotometric readings at OD600). DMSO served as our vehicle and negative control in each microdilution MIC assay. DMSO was serially diluted with a top concentration of 1% v/v.
as §2, with “for each compound was” for “for each tested compound was”, “Standards Institute (CLSI).^6 In a” for “Standards Institute (CLSI). In a”, “concentration of test compound that” for “concentration of compound that”, “37° C. The concentration range tested for each compound during this study was 0.10 to 100 μM. DMSO served” for “37° C. (MIC values were supported by spectrophotometric readings at OD600). DMSO served”, “1% v/v. All MIC values were obtained from a minimum of three independent experiments.” for “1% v/v.”

MRSA BAA-1707 = test: MIC broth microdilution, MRSA BAA-1707; type: cell-based, Staphylococcus aureus; conditions: Table 4
Method: as §2, with “The MIC was defined as the lowest concentration of compound that prevented bacterial growth after incubating 16 to 18 hours at 37° C.” left out
Each well was inoculated with ˜10^5 bacterial cells at the initial time of incubation, prepared from a fresh log phase culture (OD600 of 0.5 to 1.0 depending on bacterial strain). […] The concentration range tested for each compound during this study was 0.10 to 100 μM. DMSO served as our vehicle and negative control in each microdilution MIC assay. DMSO was serially diluted with a top concentration of 1% v/v. All MIC values were obtained from a minimum of three independent experiments.

[2] = system: methicillin-resistant Staphylococcus epidermidis (MRSE strain ATCC 35984); test: MIC broth microdilution, MRSE 35984; type: cell-based; conditions: Table 4
Method: as §2
as §2, with “for each compound was” for “for each tested compound was”, “Standards Institute (CLSI).^6 In a” for “Standards Institute (CLSI). In a”, “concentration of test compound that” for “concentration of compound that”, “37° C. The concentration range tested for each compound during this study was 0.10 to 100 μM. DMSO served” for “37° C. (MIC values were supported by spectrophotometric readings at OD600). DMSO served”, “1% v/v. All MIC values were obtained from a minimum of three independent experiments.” for “1% v/v.”

[3] = system: vancomycin-resistant Enterococcus faecium (VRE strain ATCC 700221); test: MIC broth microdilution, VRE 700221; type: cell-based; conditions: Table 4
Method: as §2
as §2, with “for each compound was” for “for each tested compound was”, “Standards Institute (CLSI).^6 In a” for “Standards Institute (CLSI). In a”, “concentration of test compound that” for “concentration of compound that”, “37° C. The concentration range tested for each compound during this study was 0.10 to 100 μM. DMSO served” for “37° C. (MIC values were supported by spectrophotometric readings at OD600). DMSO served”, “1% v/v. All MIC values were obtained from a minimum of three independent experiments.” for “1% v/v.”

[4] = system: Acinetobacter baumannii (ATCC 1794); test: MIC broth microdilution, A. baumannii 1794; type: cell-based; conditions: Table 4
Method: as §2
as §2, with “for each compound was” for “for each tested compound was”, “Standards Institute (CLSI).^6 In a” for “Standards Institute (CLSI). In a”, “concentration of test compound that” for “concentration of compound that”, “37° C. The concentration range tested for each compound during this study was 0.10 to 100 μM. DMSO served” for “37° C. (MIC values were supported by spectrophotometric readings at OD600). DMSO served”, “1% v/v. All MIC values were obtained from a minimum of three independent experiments.” for “1% v/v.”

[5] = system: Pseudomonas aeruginosa (PAO1); test: MIC broth microdilution, PAO1; type: cell-based; conditions: Table 4
Method: as §2
as §2, with “for each compound was” for “for each tested compound was”, “Standards Institute (CLSI).^6 In a” for “Standards Institute (CLSI). In a”, “concentration of test compound that” for “concentration of compound that”, “37° C. The concentration range tested for each compound during this study was 0.10 to 100 μM. DMSO served” for “37° C. (MIC values were supported by spectrophotometric readings at OD600). DMSO served”, “1% v/v. All MIC values were obtained from a minimum of three independent experiments.” for “1% v/v.”

[6] = system: Klebsiella pneumoniae (ATCC 13883); test: MIC broth microdilution, K. pneumoniae 13883; type: cell-based; conditions: Table 4
Method: as §2
as §2, with “for each compound was” for “for each tested compound was”, “Standards Institute (CLSI).^6 In a” for “Standards Institute (CLSI). In a”, “concentration of test compound that” for “concentration of compound that”, “37° C. The concentration range tested for each compound during this study was 0.10 to 100 μM. DMSO served” for “37° C. (MIC values were supported by spectrophotometric readings at OD600). DMSO served”, “1% v/v. All MIC values were obtained from a minimum of three independent experiments.” for “1% v/v.”

[7] = system: Escherichia coli clinical isolate (UAEC-1); test: MIC broth microdilution, UAEC-1; type: cell-based; conditions: Table 4
Method: as §2
as §2, with “for each compound was” for “for each tested compound was”, “Standards Institute (CLSI).^6 In a” for “Standards Institute (CLSI). In a”, “concentration of test compound that” for “concentration of compound that”, “37° C. The concentration range tested for each compound during this study was 0.10 to 100 μM. DMSO served” for “37° C. (MIC values were supported by spectrophotometric readings at OD600). DMSO served”, “1% v/v. All MIC values were obtained from a minimum of three independent experiments.” for “1% v/v.”

[8] = system: human red blood cells (hRBC); test: Hemolysis of red blood cells; type: cell-based; conditions: Table 4; concentration required to lyse 50% of red blood cells
Method: The washing was repeated three times with the buffer. In a 96-well plate, test compounds were added to the buffer from DMSO stocks. […] The plate was then incubated for 1 hour at 37° C. After incubation, the plate was centrifuged for 5 minutes at 3,500 rpm. Then 80 μL of the supernatant was transferred to another 96-well plate and the optical density (OD) was read at 405 nm. DMSO served as our negative control (0% hemolysis) while Triton X served as our positive control (100% hemolysis). […] All reported data correspond to three independent experiments. Ten-point dose-response curves were generated in 96-well plates to determine 50% hemolysis (HC50 values) of red blood cells.
The washing was repeated three times with the buffer. In 96-well plate, the test compounds were added to the buffer. Then 50 μL of 2% of hRBCs in the buffer were added to the test plate to make the final concentrations ranging from 0.2 to 200 μM of each test compound. The plate was then incubated for 1 hour at 37° C. After incubation, the plate was centrifuged for 5 minutes at 3500 rpm and then 80 μL of the supernatant was transferred to another 96-well plate and the Optical Density (OD) was read at 405 nm. DMSO served as our negative control (0% haemolysis) and Triton X served as our positive control (100% haemolysis). The HC50 (concentration of test compound required to lyse red blood cells by 50%) was calculated by plotting the dose-response curve (not shown) with Graphpad Prism 6.0. All data were obtained from three independent haemolysis experiments.

- MIC C. albicans SC5314 (C. albicans SC5314): 0.78 µM (≈ 0.721 µg/mL)
- MIC C. neof 66031 (C. neoformans ATCC 66031): 0.1 µM (≈ 0.0924 µg/mL)
Structure (SMILES): C[C@@H]1[C@H](O)[C@@H](C)/C=C/C=C/C=C/C=C/C=C/C=C/C=C/[C@H](O[C@@H]2O[C@H](C)[C@@H](O)[C@H](N)[C@@H]2O)C[C@@H]2O[C@](O)(C[C@@H](O)C[C@@H](O)[C@H](O)CC[C@@H](O)C[C@@H](O)CC(=O)O[C@H]1C)C[C@H](O)[C@H]2C(=O)O [Amp. B, Amphotericin B, reference compound]

Structure (SMILES): CCCCCCCCCCCCCCCCn1cc[n+](Cc2ccccc2C[n+]2ccn(CCCCCCCCCCCCCCCC)c2C)c1C.[Br-].[Br-] [Compound 29]
- MIC MRSA-2 [1]: >100 µM
- MIC MRSA 1707 (MRSA BAA-1707): >100 µM
- MIC MRSE 35984 [2]: >100 µM
- MIC VRE 700221 [3]: >100 µM
- MIC A. bau. 1794 [4]: >100 µM
- MIC PAO1 [5]: >100 µM
- MIC K. pneu. 13883 [6]: >100 µM
- MIC UAEC-1 [7]: >100 µM
- RBC HC50 [8]: 34.5 µM
